Reference: patent US12264156B2, “Compounds and pharmaceutical compositions thereof for the treatment of diseases” (GALAPAGOS NV, priority 2018, dated 2025)

system: LPS-induced TNFα in monocyte-derived macrophages (MdM); assay: MdM assay: LPS-triggered TNFα (ELISA); format: cell-based, human; conditions: Homo sapiens, Macrophage, 20 h, monocyte-derived macrophages, LPS 200 ng/mL, supernatant after 20 h; read-out: TNFα EC50
Method in brief: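 Human monocyte-derived macrophages from CD14+ bead-selected buffy-coat PBMCs, used on day 10, pre-treated with compound for 1 h at 37 °C (0.2% DMSO), then stimulated with 200 ng/mL LPS. Supernatant taken after 20 h for TNFα sandwich ELISA (IL-10 at 2 h).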

`CN(C)CCOc1ccn2c(-c3cc4c(c(OC(F)F)c3)C(=O)N(CC(F)F)CC4)cnc2c1` [Cpd 150, 2-(2,2-difluoroethyl)-8-(difluoromethoxy)-6-[7-[2-(dimethylamino)ethoxy]imidazo[1,2-a]pyridin-3-yl]-3,4-dihydroisoquinolin-1-one] and `COc1cc(-c2cnc3cc(OCCN(C)C)ccn23)cc2c1C(=O)N(CC(F)F)CC2` [compound 54, 2-(2,2-difluoroethyl)-6-[7-[2-(dimethylamino)ethoxy]imidazo [1,2-a]pyridin-3-yl]-8-methoxy-3,4-dihydro isoquinolin-1-one] fall in the same range of EC50: 100 to 1000 nM for the first, 100 to 1000 nM for the second.

`COc1cc(-c2cnc3cc(OC[C@H]4CCCN4C)ccn23)cc2c1C(=O)N(CC(F)(F)F)CC2` [compound 124, 8-methoxy-6-[7-[[(2R)-1-methylpyrrolidin-2-yl]methoxy]imidazo[1,2-a]pyridin-3-yl]-2-(2,2,2-trifluoroethyl)-3,4-dihydroisoquinolin-1-one] and `COc1cc(-c2cnc3cc(OCCN4CCOC[C@H]4C)ccn23)cc2c1C(=O)N(CC(F)(F)F)CC2` [compound 259, 8-methoxy-6-[7-[2-[(3R)-3-methylmorpholin-4-yl]ethoxy]imidazo[1,2-a]pyridin-3-yl]-2-(2,2,2-trifluoroethyl)-3,4-dihydroisoquinolin-1-one] fall in the same range of EC50: 100 to 1000 nM for the first, 100 to 1000 nM for the second.

Compared with `COc1cc(-c2cnc3cc(OCCCN(C)C)ccn23)cc(OC(F)F)c1C(=O)NC1CC1` [Cpd 13], `COc1cc(-c2cnc3cc(OCCN(C)C)ccn23)cc(OC(F)F)c1C(=O)NC1CC1` [Cpd 6, N-cyclopropyl-2-(difluoromethoxy)-4-[7-[2-(dimethylamino)ethoxy]imidazo[1,2-a]pyridin-3-yl]-6-methoxy-benzamide] is higher in EC50: 0.1 to 100 nM for the first, 100 to 1000 nM for the second. The first is the more potent here.

`COc1cc(-c2cnc3cc(OCCN4CCN(C)CC4)ccn23)cc(OC(F)F)c1C(=O)NC1CC1` [compound 9, N-cyclopropyl-2-(difluoromethoxy)-6-methoxy-4-[7-[2-(4-methylpiperazin-1-yl)ethoxy]imidazo[1,2-a]pyridin-3-yl]benzamide] and `COc1cc(-c2cnc3cc(OCCN4CCN(C(C)C)CC4)ccn23)cc(OC(F)F)c1C(=O)NC1CC1` [compound 276, N-cyclopropyl-2-(difluoromethoxy)-4-[7-[2-(4-isopropylpiperazin-1-yl)ethoxy]imidazo[1,2-a]pyridin-3-yl]-6-methoxy-benzamide] fall in the same range of EC50: 100 to 1000 nM for the first, 100 to 1000 nM for the second.

`COc1cc(-c2cnc3cc(OCCN(C)C)ccn23)cc(OC(F)F)c1C(=O)NCC(F)(F)F` [compound 166, 2-(difluoromethoxy)-4-[7-[2-(dimethylamino)ethoxy]imidazo[1,2-a]pyridin-3-yl]-6-methoxy-N-(2,2,2-trifluoroethyl)benzamide] and `CN(C)CCOc1ccn2c(-c3cc(OC(F)F)c(C(=O)NC4CC4)c(OC(F)F)c3)cnc2c1` [compound 156, N-cyclopropyl-2,6-bis(difluoromethoxy)-4-[7-[2-(dimethylamino)ethoxy]imidazo[1,2-a]pyridin-3-yl]benzamide] fall in the same range of EC50: 100 to 1000 nM for the first, 100 to 1000 nM for the second.

`COc1cc(-c2cnc3cc(OCCN)ccn23)cc(OC(F)F)c1C(=O)NC1CC1` [compound 118, 4-[7-(2-aminoethoxy)imidazo[1,2-a]pyridin-3-yl]-N-cyclopropyl-2-(difluoromethoxy)-6-methoxy-benzamide] and `CNCCOc1ccn2c(-c3cc(OC)c(C(=O)NC4CC4)c(OC(F)F)c3)cnc2c1` [compound 117, N-cyclopropyl-2-(difluoromethoxy)-6-methoxy-4-[7-[2-(methylamino)ethoxy]imidazo[1,2-a]pyridin-3-yl]benzamide] fall in the same range of EC50: 100 to 1000 nM for the first, 100 to 1000 nM for the second.

`CCN1CCCCC1COc1ccn2c(-c3cc(OC)c(C(=O)NC4CC4)c(OC(F)F)c3)cnc2c1` (stereo not drawn) [compound 83, N-cyclopropyl-2-(difluoromethoxy)-4-[7-[(1-ethyl-2-piperidyl)methoxy]imidazo [1,2-a]pyridin-3-yl]-6-methoxy-benzamide] and `COc1cc(-c2cnc3cc(OC[C@H]4CCCCN4C)ccn23)cc(OC(F)F)c1C(=O)NC1CC1` [compound 111, N-cyclopropyl-2-(difluoromethoxy)-6-methoxy-4-[7-[[(2R)-1-methyl-2-piperidyl]methoxy]imidazo[1,2-a]pyridin-3-yl]benzamide] fall in the same range of EC50: 100 to 1000 nM for the first, 100 to 1000 nM for the second.

`CCOC(=O)C1(F)CCN(CCOc2ccn3c(-c4cc(OC)c(C(=O)NC5CC5)c(OC(F)F)c4)cnc3c2)CC1` [compound 390, ethyl 1-[2-[3-[4-(cyclopropylcarbamoyl)-3-(difluoromethoxy)-5-methoxy-phenyl]imidazo[1,2-a]pyridin-7-yl]oxyethyl]-4-fluoro-piperidine-4-carboxylate] and `CCOC(=O)C1(F)CCN(CC(O)COc2ccn3c(-c4cc(OC)c(C(=O)NC5CC5)c(OC(F)F)c4)cnc3c2)CC1` (stereo not drawn) [compound 384, ethyl 1-[3-[3-[4-(cyclopropylcarbamoyl)-3-(difluoromethoxy)-5-methoxy-phenyl]imidazo[1,2-a]pyridin-7-yl]oxy-2-hydroxy-propyl]-4-fluoro-piperidine-4-carboxylate] fall in the same range of EC50: 0.1 to 100 nM for the first, 0.1 to 100 nM for the second.

`COc1cc(-c2cnc3cc(OCCN4CCOC[C@H]4C)ccn23)cc(OC(F)F)c1C(=O)NC1CC1` [compound 234, N-cyclopropyl-2-(difluoromethoxy)-6-methoxy-4-[7-[2-[(3R)-3-methylmorpholin-4-yl]ethoxy]imidazo[1,2-a]pyridin-3-yl]benzamide] and `COc1cc(-c2cnc3cc(OCCN4CCOC[C@@H]4C)ccn23)cc(OC(F)F)c1C(=O)NC1CC1` [compound 233, N-cyclopropyl-2-(difluoromethoxy)-6-methoxy-4-[7-[2-[(3S)-3-methylmorpholin-4-yl]ethoxy]imidazo[1,2-a]pyridin-3-yl]benzamide] fall in the same range of EC50: 100 to 1000 nM for the first, 100 to 1000 nM for the second.

Compared with `CNc1cc(-c2cnc3cc(OCCN(C)C)ccn23)cc2c1C(=O)N(CC(F)(F)F)CC2` [compound 167, 6-[7-[2-(dimethylamino)ethoxy]imidazo[1,2-a]pyridin-3-yl]-8-(methylamino)-2-(2,2,2-trifluoroethyl)-3,4-dihydroisoquinolin-1-one], `COc1cc(-c2cnc3cc(OCCN4CCS(=O)(=O)CC4)ccn23)cc2c1C(=O)N(CC(F)(F)F)CC2` [compound 41, 6-[7-[2-(1,1-dioxo-1,4-thiazinan-4-yl)ethoxy]imidazo[1,2-a]pyridin-3-yl]-8-methoxy-2-(2,2,2-trifluoroethyl)-3,4-dihydroisoquinolin-1-one] is lower in EC50: > 5000 nM for the first, 1000 to 5000 nM for the second. The second is the more potent here.

Compared with `COc1cc(-c2cnc3cc(OCCCN4CCCC(O)C4)ccn23)cc(OC(F)F)c1C(=O)NC1CC1` (stereo not drawn) [compound 328, N-cyclopropyl-2-(difluoromethoxy)-4-[7-[3-(3-hydroxy-1-piperidyl)propoxy]imidazo [1,2-a]pyridin-3-yl]-6-methoxy-benzamide], `COc1cc(-c2cnc3cc(OCCCN4CCS(=O)(=O)CC4)ccn23)cc(OC(F)F)c1C(=O)NC1CC1` [Cpd 331, N-cyclopropyl-2-(difluoromethoxy)-4-[7-[3-(1,1-dioxo-1,4-thiazinan-4-yl)propoxy]imidazo[1,2-a]pyridin-3-yl]-6-methoxy-benzamide] is higher in EC50: 0.1 to 100 nM for the first, 100 to 1000 nM for the second. The first is the more potent here.

`COc1cc(-c2cnc3cc(OCCN4C[C@@H]5C[C@H]4CO5)ccn23)cc(OC(F)F)c1C(=O)NC1CC1` [compound 206, N-cyclopropyl-2-(difluoromethoxy)-6-methoxy-4-[7-[2-[(1S,4S)-2-oxa-5-azabicyclo[2.2.1]heptan-5-yl]ethoxy]imidazo[1,2-a]pyridin-3-yl]benzamide] and `COc1cc(-c2cnc3cc(OC[C@H]4CCCN4C)ccn23)cc(OC(F)F)c1C(=O)NC1CC1` [compound 81, N-cyclopropyl-2-(difluoromethoxy)-6-methoxy-4-[7-[[(2R)-1-methylpyrrolidin-2-yl]methoxy]imidazo[1,2-a]pyridin-3-yl]benzamide] fall in the same range of EC50: 100 to 1000 nM for the first, 100 to 1000 nM for the second.

First: COc1cc(-c2cnc3cc(OCCCN4CCC5(CC4)CN(C)C(=O)O5)ccn23)cc(OC(F)F)c1C(=O)NC1CC1 [compound 325, N-cyclopropyl-2-(difluoromethoxy)-6-methoxy-4-[7-[3-(3-methyl-2-oxo-1-oxa-3,8-diazaspiro[4.5]decan-8-yl)propoxy]imidazo[1,2-a]pyridin-3-yl]benzamide]
Second: COc1cc(-c2cnc3cc(OCC4(C)CN(C)C4)ccn23)cc(OC(F)F)c1C(=O)NC1CC1 [compound 220, N-cyclopropyl-2-(difluoromethoxy)-4-[7-[(1,3-dimethylazetidin-3-yl)methoxy]imidazo[1,2-a]pyridin-3-yl]-6-methoxy-benzamide]
The EC50 of the first is lower: 0.1 to 100 nM for the first, 100 to 1000 nM for the second.

`COc1cc(-c2cnc3cc(OC(C)(C)CO)ccn23)cc(OC(F)F)c1C(=O)NC1CC1` [Cpd 209, N-cyclopropyl-2-(difluoromethoxy)-4-[7-(2-hydroxy-1,1-dimethyl-ethoxy)imidazo[1,2-a]pyridin-3-yl]-6-methoxy-benzamide] and `COc1cc(-c2cnc3cc(OCC(C)(C)N)ccn23)cc(OC(F)F)c1C(=O)NC1CC1` [compound 104, 4-[7-(2-amino-2-methyl-propoxy)imidazo[1,2-a]pyridin-3-yl]-N-cyclopropyl-2-(difluoromethoxy)-6-methoxy-benzamide] fall in the same range of EC50: 1000 to 5000 nM for the first, 1000 to 5000 nM for the second.

same assay, conditions: Homo sapiens, Macrophage, 20 h, read-out: TNFα EC50 (nM)

With `COc1cc(-c2cnc3cc(OCCN4CCOCC4)ccn23)cc2c1C(=O)N(CC(F)(F)F)CC2` [Cpd 88, 8-methoxy-6-[7-(2-morpholinoethoxy)imidazo [1,2-a]pyridin-3-yl]-2-(2,2,2-trifluoroethyl)-3,4-dihydroisoquinolin-1-one] the EC50 was 100 to 1000 nM.

same assay, conditions: monocyte-derived macrophages, LPS 200 ng/mL, supernatant after 20 h; read-out: TNFα EC50

In the case of `COc1cc(-c2cnc3cc(OCC(O)CN4CCOCC4)ccn23)cc(OC(F)F)c1C(=O)NC1CC1` (single isomer, unassigned) [Cpd 387, N-cyclopropyl-2-(difluoromethoxy)-4-[7-(2-hydroxy-3-morpholino-propoxy)imidazo[1,2-a]pyridin-3-yl]-6-methoxy-benzamide], the EC50 is reported as 0.1 to 100 nM.
